In article PMC3433420 (PLoS ONE, 2012):
Residues, ends and D or L forms follow the SMILES beside them.

Columns and labels:
Assay in all cases: In-house protein microarrays (with or without 5 mM DTT), protein named per line
Assay type in all cases: binding
SH2 and PTB domains [1] = biological target: T1, SH2 and PTB domains (Homo sapiens, UniProt P00519); settings: protein ABL1
T1 construct: thioredoxin; made in house; host or cells: BL21(DE3)pLysS E. coli
Procedure, shortened: (§1)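 KD values come from rhodamine fluorescence of duplicate spots after subtraction of a thioredoxin control. Domains were printed at ~40 µM on aldehyde slides, blocked 1 h at room temperature in pH 7.8 HEPES/KCl buffer with 5 mM DTT and 1% BSA, then peptide-probed.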

SH2 and PTB domains [2] = biological target: T2, SH2 and PTB domains (Homo sapiens, UniProt P51813); settings: protein BMX
T2 construct: thioredoxin; made in house; host or cells: BL21(DE3)pLysS E. coli
T2 sequence (P51813 1-675): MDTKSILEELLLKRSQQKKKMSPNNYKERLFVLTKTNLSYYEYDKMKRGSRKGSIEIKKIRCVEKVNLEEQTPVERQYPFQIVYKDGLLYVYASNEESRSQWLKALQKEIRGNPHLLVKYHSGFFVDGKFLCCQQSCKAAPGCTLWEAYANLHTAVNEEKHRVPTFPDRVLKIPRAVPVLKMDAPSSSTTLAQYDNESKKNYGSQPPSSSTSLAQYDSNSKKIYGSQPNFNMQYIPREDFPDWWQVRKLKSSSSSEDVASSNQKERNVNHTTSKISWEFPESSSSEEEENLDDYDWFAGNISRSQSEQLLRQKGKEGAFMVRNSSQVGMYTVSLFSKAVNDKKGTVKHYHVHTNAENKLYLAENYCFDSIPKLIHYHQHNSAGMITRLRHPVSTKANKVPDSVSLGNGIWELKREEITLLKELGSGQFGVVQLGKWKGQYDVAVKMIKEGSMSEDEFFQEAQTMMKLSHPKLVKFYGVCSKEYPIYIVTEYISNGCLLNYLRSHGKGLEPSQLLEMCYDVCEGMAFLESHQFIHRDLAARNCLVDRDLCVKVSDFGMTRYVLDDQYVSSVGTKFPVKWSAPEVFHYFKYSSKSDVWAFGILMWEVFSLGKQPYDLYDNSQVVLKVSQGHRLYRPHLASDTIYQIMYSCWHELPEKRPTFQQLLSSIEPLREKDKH
Procedure, shortened: as §1

SH2 and PTB domains [3] = biological target: T3, SH2 and PTB domains (Homo sapiens, UniProt P27986)
T3 construct: thioredoxin; made in house; host or cells: BL21(DE3)pLysS E. coli
Procedure, shortened: as §1

SH2 and PTB domains [4] = biological target: T4, SH2 and PTB domains (Homo sapiens, UniProt P78314); settings: protein SH3BP2
T4 construct: thioredoxin; made in house; host or cells: BL21(DE3)pLysS E. coli
T4 sequence (P78314 1-561): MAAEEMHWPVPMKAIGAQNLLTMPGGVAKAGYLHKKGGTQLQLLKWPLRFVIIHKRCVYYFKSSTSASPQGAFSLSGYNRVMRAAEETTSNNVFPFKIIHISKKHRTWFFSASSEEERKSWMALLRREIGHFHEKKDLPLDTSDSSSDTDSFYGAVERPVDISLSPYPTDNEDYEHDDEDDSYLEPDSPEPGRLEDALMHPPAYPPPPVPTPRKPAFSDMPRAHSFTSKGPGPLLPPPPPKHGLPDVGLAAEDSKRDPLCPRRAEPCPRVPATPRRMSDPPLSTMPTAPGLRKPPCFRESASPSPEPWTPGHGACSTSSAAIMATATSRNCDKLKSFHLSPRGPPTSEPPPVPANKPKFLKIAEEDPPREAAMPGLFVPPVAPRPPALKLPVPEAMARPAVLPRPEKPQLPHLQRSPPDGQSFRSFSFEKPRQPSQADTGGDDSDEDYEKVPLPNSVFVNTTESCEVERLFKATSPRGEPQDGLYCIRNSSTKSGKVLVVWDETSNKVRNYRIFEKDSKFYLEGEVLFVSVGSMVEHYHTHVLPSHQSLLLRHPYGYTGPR
Procedure, shortened: as §1

SH2 and PTB domains [5] = biological target: T5, SH2 and PTB domains (Homo sapiens, UniProt P42684); settings: protein ABL2
T5 construct: thioredoxin; made in house; host or cells: BL21(DE3)pLysS E. coli
Procedure, shortened: as §1

SH2 and PTB domains [6] = biological target: T6, SH2 and PTB domains (Homo sapiens, UniProt Q7M4L6); settings: protein SHF
T6 construct: thioredoxin; made in house; host or cells: BL21(DE3)pLysS E. coli
Procedure, shortened: as §1

[7] = PM assay replicate # 39336, array fabrication # 39329
[8] = PM assay replicate # 39337, array fabrication # 39329
[9] = PM assay replicate # 39307, array fabrication # 39286
[10] = PM assay replicate # 39351, array fabrication # 39336
[11] = PM assay replicate # 39352, array fabrication # 39336

T3 sequence (P27986 whole entry, the tested form may be a part): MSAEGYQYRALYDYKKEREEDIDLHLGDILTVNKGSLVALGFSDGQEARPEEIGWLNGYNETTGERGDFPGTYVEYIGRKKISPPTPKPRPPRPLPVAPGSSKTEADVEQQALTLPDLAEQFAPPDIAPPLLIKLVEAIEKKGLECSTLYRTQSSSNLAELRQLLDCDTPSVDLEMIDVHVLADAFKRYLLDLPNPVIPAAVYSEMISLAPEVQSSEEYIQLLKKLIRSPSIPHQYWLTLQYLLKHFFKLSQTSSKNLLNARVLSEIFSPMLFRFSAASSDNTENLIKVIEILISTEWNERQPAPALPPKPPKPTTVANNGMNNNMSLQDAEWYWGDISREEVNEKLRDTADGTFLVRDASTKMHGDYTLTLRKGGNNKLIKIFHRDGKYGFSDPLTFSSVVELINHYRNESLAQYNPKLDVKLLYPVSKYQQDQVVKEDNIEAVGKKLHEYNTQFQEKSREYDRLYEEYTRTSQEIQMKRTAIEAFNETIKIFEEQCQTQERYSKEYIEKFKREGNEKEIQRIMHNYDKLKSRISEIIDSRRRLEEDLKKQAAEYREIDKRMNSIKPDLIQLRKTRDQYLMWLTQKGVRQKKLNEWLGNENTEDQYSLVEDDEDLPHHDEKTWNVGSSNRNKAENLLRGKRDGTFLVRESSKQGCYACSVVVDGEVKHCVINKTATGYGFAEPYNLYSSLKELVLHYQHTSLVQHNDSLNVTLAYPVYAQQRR
T5 sequence (P42684 whole entry, the tested form may be a part): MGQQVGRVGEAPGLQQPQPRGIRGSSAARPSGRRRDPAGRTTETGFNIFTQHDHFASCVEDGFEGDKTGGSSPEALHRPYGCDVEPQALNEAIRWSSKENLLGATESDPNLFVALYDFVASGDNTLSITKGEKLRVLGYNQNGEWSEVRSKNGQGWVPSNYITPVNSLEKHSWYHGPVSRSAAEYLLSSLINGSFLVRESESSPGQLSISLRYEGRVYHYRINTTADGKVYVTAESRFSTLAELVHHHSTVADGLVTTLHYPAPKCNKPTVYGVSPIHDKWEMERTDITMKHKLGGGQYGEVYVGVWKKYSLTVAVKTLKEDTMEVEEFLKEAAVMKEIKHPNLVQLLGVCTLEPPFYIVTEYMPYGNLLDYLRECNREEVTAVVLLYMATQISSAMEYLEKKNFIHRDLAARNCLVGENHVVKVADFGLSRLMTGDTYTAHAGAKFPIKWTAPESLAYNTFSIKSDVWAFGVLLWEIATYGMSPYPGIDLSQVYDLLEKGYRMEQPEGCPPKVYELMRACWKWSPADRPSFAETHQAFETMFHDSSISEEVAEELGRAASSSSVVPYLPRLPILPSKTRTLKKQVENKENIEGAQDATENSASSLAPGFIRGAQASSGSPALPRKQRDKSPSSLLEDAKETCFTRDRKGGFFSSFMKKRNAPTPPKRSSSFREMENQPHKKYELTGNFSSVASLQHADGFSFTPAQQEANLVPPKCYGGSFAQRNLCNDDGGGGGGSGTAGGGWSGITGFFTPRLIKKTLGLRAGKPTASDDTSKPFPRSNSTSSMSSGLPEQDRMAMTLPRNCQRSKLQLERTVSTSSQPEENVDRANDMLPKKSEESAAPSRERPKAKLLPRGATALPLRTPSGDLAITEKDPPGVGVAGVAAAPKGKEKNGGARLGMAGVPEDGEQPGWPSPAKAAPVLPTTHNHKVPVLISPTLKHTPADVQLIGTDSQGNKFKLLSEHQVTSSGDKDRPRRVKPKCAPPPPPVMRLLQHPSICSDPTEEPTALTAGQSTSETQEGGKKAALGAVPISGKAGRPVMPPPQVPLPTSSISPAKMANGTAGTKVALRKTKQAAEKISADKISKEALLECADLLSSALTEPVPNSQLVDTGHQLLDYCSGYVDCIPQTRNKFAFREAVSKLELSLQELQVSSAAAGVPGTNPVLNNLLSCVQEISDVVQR
T1 sequence (P00519 whole entry, the tested form may be a part): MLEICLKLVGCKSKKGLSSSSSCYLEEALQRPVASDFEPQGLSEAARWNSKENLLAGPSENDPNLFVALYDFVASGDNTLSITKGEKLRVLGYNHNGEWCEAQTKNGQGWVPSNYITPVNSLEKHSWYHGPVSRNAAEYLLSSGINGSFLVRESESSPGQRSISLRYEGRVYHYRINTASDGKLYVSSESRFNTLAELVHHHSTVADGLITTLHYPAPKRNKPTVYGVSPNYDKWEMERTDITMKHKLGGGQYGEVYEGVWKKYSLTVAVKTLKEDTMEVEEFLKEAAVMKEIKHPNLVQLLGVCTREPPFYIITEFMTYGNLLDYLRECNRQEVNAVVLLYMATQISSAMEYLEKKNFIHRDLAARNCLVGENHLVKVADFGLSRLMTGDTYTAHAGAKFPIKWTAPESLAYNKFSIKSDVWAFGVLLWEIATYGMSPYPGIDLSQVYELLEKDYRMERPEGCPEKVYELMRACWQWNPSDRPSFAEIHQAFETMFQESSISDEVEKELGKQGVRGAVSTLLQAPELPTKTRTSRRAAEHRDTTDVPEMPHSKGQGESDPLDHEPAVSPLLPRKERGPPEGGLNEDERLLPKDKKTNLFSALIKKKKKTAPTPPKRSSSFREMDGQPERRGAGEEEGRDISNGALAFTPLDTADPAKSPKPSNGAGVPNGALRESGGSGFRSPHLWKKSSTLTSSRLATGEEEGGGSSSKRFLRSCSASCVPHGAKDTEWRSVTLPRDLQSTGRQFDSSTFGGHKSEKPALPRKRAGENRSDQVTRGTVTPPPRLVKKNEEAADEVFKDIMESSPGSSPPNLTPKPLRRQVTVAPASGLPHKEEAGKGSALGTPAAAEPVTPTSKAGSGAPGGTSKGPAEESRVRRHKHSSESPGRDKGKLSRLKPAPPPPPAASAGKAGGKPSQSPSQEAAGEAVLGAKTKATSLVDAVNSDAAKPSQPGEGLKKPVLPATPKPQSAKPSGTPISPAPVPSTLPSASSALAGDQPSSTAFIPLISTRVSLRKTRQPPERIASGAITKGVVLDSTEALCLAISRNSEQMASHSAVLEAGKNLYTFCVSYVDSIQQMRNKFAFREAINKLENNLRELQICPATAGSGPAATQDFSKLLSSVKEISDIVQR
T6 sequence (Q7M4L6 whole entry, the tested form may be a part): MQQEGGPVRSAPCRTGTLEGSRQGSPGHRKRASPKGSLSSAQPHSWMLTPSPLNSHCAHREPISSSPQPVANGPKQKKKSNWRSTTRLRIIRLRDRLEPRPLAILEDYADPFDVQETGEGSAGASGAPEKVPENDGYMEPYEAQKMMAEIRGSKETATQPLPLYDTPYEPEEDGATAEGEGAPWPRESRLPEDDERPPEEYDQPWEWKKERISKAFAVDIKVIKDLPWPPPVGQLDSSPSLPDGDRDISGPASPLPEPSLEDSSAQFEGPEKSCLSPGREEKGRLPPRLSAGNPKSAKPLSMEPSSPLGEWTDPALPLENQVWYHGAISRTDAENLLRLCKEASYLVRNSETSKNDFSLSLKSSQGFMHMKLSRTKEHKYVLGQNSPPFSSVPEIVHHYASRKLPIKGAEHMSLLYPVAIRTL

SMILES | Kd (SH2 and PTB domains [1]; [7]) [µM] | Kd (SH2 and PTB domains [1]; [8]) [µM] | Kd (SH2 and PTB domains [2]; [7]) [µM] | Kd (SH2 and PTB domains [2]; [8]) [µM] | Kd (SH2 and PTB domains [3]; protein PIK3R1-N, PM assay replicate # 39336, array fabrication # 39329) [µM] | Kd (SH2 and PTB domains [3]; protein PIK3R1-N, PM assay replicate # 39337, array fabrication # 39329) [µM] | Kd (SH2 and PTB domains [4]; [9]) [µM] | Kd (SH2 and PTB domains [4]; [8]) [µM] | Kd (SH2 and PTB domains [4]; [10]) [µM] | Kd (SH2 and PTB domains [4]; [11]) [µM] | Kd (SH2 and PTB domains [5]; [9]) [µM] | Kd (SH2 and PTB domains [5]; [8]) [µM] | Kd (SH2 and PTB domains [3]; protein PIK3R1-NC, PM assay replicate # 39307, array fabrication # 39286) [µM] | Kd (SH2 and PTB domains [3]; protein PIK3R1-NC, PM assay replicate # 39337, array fabrication # 39329) [µM] | Kd (SH2 and PTB domains [6]; [8]) [µM] | Kd (SH2 and PTB domains [1]; [9]) [µM] | Kd (SH2 and PTB domains [5]; [11]) [µM] | Kd (SH2 and PTB domains [2]; [9]) [µM] | Kd (SH2 and PTB domains [6]; [9]) [µM]
CC(C)C[C@H](NC(=O)[C@@H]1CCCN1C(=O)[C@H](C)NC(=O)[C@@H](NC(=O)[C@H](Cc1ccc(OP(=O)(O)O)cc1)NC(=O)CNC(=O)[C@H](CC(=O)O)NC(=O)[C@@H](NC(=O)[C@@H](N)CCC(=O)O)[C@@H](C)O)C(C)C)C(=O)N[C@H](C(=O)N[C@@H](CS)C(=O)N[C@@H](CO)C(=O)N[C@@H](CC(=O)O)C(=O)O)[C@@H](C)O [ErbB2 pY1127] | 0.30 | 0.53 | 1.60 | 5.39 | 0.019 | 0.22 |  |  |  |  |  |  |  |  |  |  |  |  | 
CCN(CC)c1ccc2c(-c3ccc(C(=O)N[C@@H](CC(N)=O)C(=O)NCC(=O)N4CCC[C@H]4C(=O)N4CCC[C@H]4C(=O)N[C@@H](CCCCN)C(=O)N[C@@H](C)C(=O)N[C@@H](CCC(=O)O)C(=O)N[C@@H](CC(=O)O)C(=O)N[C@@H](CCC(=O)O)C(=O)N[C@@H](Cc4ccc(OP(=O)(O)O)cc4)C(=O)N[C@H](C(=O)N[C@@H](CC(N)=O)C(=O)N[C@@H](CCC(=O)O)C(=O)N4CCC[C@H]4C(=O)N[C@@H](CC(C)C)C(=O)N[C@@H](Cc4ccc(O)cc4)C(=O)N[C@@H](CC(C)C)C(=O)N[C@@H](CC(=O)O)C(=O)O)C(C)C)cc3C(=O)[O-])c3ccc(=[N+](CC)CC)cc-3oc2c1 [ErbB4 1202 (18-mer)] (HELM PEPTIDE1{[CCN(CC)c1ccc2c(-c3ccc(C(=O)[*:2])cc3C(=O)[O-])c3ccc(=[N+](CC)CC)cc-3oc2c1].N.G.P.P.K.A.E.D.E.[O=C([C@H](Cc1ccc(OP(=O)(O)O)cc1)N[*:1])[*:2]].V.N.E.P.L.Y.L.D}$$$$V2.0) |  |  |  |  |  |  | 0.50 | 2.06 | 1.61 | 15.93 | 1.00 | 0.97 | 0.17 | 0.54 | 11.92 |  |  |  | 
CC[C@H](C)[C@H](NC(=O)[C@H](CC(N)=O)NC(=O)[C@H](CC(N)=O)NC(=O)[C@H](CCCCN)NC(=O)[C@H](CC(C)C)NC(=O)[C@H](Cc1ccc(OP(=O)(O)O)cc1)NC(=O)[C@H](CCC(=O)O)NC(=O)[C@H](C)NC(=O)[C@H](CCCCN)NC(=O)CNC(=O)[C@H](CC(C)C)NC(=O)[C@@H](NC(=O)[C@H](CC(N)=O)NC(=O)[C@H](C)NC(=O)[C@@H](N)Cc1ccccc1)[C@@H](C)O)C(=O)N[C@@H](CC(C)C)C(=O)N[C@@H](CO)C(=O)N[C@@H](CC(=O)O)C(=O)O [ErbB4 pY1221 (18-mer)] (HELM PEPTIDE1{F.A.N.T.L.G.K.A.E.[O=C([C@H](Cc1ccc(OP(=O)(O)O)cc1)N[*:1])[*:2]].L.K.N.N.I.L.S.D}$$$$V2.0) |  |  |  |  |  |  | 1.24 |  | 2.36 | 10.86 | 0.28 |  |  |  |  | 0.25 | 0.91 | 0.42 | 1.19
